Measurements published in US9493396B2, “Substituted naphthalene compounds as calcium sensing receptor modulators” (LUPIN ATLANTIS HOLDINGS SA, priority 2013, dated 2016).
Where a name gives a salt, the structure may show the parent alone.

These compounds were tested against T1, Calcium sensing receptor (hCaSR) (Homo sapiens, UniProt P41180) (assay: In-vitro assay of calcimimetics through modulation of calcium sensing receptor (intracellular calcium increase, FLIPR)). Details: stably transfected HEK293 cells expressing hCaSR; Fluo4NW dye; 0.3 mM CaCl2; 8-point assay; read-out: EC50 in range.
T1 construct: expressed in transfected cells; host or cells: HEK293 (stably transfected)
T1 sequence (P41180 20-1078): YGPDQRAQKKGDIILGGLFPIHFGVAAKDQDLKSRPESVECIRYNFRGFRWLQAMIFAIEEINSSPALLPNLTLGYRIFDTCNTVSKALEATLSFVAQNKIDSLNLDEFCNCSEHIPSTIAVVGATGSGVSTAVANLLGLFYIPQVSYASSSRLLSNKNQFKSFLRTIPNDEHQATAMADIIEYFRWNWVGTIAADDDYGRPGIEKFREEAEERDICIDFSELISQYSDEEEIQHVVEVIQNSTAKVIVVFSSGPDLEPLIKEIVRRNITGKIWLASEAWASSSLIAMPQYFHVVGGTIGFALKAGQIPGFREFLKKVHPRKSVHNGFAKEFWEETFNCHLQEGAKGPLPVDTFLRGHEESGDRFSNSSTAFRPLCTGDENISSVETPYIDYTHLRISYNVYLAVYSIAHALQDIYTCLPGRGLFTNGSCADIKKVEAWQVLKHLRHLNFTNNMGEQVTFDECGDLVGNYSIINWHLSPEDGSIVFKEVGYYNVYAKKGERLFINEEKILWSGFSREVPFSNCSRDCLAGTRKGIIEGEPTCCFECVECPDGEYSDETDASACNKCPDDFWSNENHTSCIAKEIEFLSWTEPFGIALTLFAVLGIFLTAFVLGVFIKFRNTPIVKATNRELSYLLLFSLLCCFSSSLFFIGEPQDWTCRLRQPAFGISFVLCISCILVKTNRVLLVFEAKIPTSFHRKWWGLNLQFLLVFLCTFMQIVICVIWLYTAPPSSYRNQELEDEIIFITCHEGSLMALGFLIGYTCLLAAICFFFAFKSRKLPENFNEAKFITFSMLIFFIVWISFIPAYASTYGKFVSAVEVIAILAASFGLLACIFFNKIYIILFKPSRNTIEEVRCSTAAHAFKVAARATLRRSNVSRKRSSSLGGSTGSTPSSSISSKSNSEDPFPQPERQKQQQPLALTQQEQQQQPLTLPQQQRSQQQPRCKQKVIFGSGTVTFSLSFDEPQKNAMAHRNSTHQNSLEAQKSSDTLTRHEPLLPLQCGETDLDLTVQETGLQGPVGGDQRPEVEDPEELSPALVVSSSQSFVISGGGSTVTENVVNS
Type: cell-based
How it was run: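 Stably transfected HEK293 cells expressing hCaSR, loaded 30 min with Fluo4NW dye. Intracellular calcium rise measured on FLIPR in 20 mM HEPES buffer with 0.3 mM CaCl2. EC50 derived from 8-point concentration series.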

Compound | EC50
CC(N[C@H](C)c1cccc(Cl)c1)c1cc(-c2ccc(C(F)(F)F)c(CCC(=O)O)c2)c2ccccc2c1 (stereo partly drawn) [Example 146, 3-(5-(3-(1-(((R)-1-(3-Chlorophenyl)ethyl)amino)ethyl)naphthalen-1-yl)-2-(trifluoromethyl)phenyl)propanoic acid hydrochloride] | 50 to 400 nM
COc1cccc([C@@H](C)NC(C)c2cc(-c3cc(F)cc(CCC(=O)O)c3)c3cc(F)ccc3c2)c1 (stereo partly drawn) [Example 147, 3-(3-Fluoro-5-(7-fluoro-3-(1-(((R)-1-(3-methoxyphenyl)ethyl)amino)ethyl)naphthalen-1-yl)phenyl)propanoic acid hydrochloride] | 50 to 400 nM
CCC(N[C@H](C)c1cccc(OC)c1)c1cc(-c2cc(F)cc(CCC(=O)O)c2)c2ccccc2c1 (stereo partly drawn) [Example 148, 3-(3-Fluoro-5-(3-(1-(((R)-1-(3-methoxyphenyl)ethyl)amino)propyl)naphthalen-1-yl)phenyl)propanoic acid hydrochloride] | 50 to 400 nM
CCC(N[C@H](C)c1cccc(OC)c1)c1cc(-c2ccc(C)c(C(=O)O)c2)c2ccccc2c1 (stereo partly drawn) [Example 149, 5-(3-(1-(((R)-1-(3-Methoxyphenyl)ethyl)amino)propyl)naphthalen-1-yl)-2-methylbenzoic acid hydrochloride] | 50 to 400 nM
COc1cc(C(=O)O)cc(-c2cc(C(C)N[C@H](C)c3cccc(OC)c3)cc3ccccc23)c1 (stereo partly drawn) [Example 150, 3-Methoxy-5-(3-(1-(((R)-1-(3-methoxyphenyl)ethyl)amino)ethyl)naphthalen-1-yl)benzoic acid hydrochloride] | 50 to 400 nM
COc1cccc([C@@H](C)NC(C)c2cc(-c3cc(F)cc(OC(C)(C)C(=O)O)c3)c3ccccc3c2)c1 (stereo partly drawn) [Example 151, 2-(3-Fluoro-5-(3-(1-(((R)-1-(3-methoxyphenyl)ethyl)amino)ethyl)naphthalen-1-yl)phenoxy)-2-methylpropanoic acid hydrochloride] | 50 to 400 nM
CCC(N[C@H](C)c1cccc(Cl)c1)c1cc(-c2ccc(F)c(CCC(=O)O)c2)c2ccccc2c1 (stereo partly drawn) [Example 152, 3-(5-(3-(1-(((R)-1-(3-Chlorophenyl)ethyl)amino)propyl)naphthalen-1-yl)-2-fluorophenyl)propanoic acid hydrochloride] | 50 to 400 nM
CCOc1cccc([C@@H](C)NC(C)c2cc(-c3ccc(C)c(CCC(=O)OC(C)C)c3)c3ccccc3c2)c1 (stereo partly drawn) [Example 154, Isopropyl 3-(5-(3-(1-(((R)-1-(3-ethoxyphenyl)ethyl)amino)ethyl)naphthalen-1-yl)-2-methylphenyl) propanoate hydrochloride] | 50 to 400 nM
CC(N[C@H](C)c1cccc(Cl)c1)c1cc(-c2ccc(S(C)(=O)=O)cc2)c2ccccc2c1 (stereo partly drawn) [Example 159, (1R)-1-(3-Chlorophenyl)-N-(1-(4-(4-(methylsulfonyl)phenyl)naphthalen-2-yl)ethyl)ethanamine hydrochloride] | 50 to 400 nM

Second part, the compound after the results:

EC50 | Compound
50 to 400 nM | CCC(N[C@H](C)c1cccc(OC)c1)c1cc(-c2ccc(F)c(CCC(=O)O)c2)c2ccccc2c1 (stereo partly drawn) [Example 140, 3-(2-Fluoro-5-(3-(1-(((R)-1-(3-methoxyphenyl)ethyl)amino)propyl)naphthalen-1-yl)phenyl)propanoic acid hydrochloride]
20 to 50 nM | CCOc1cccc([C@@H](C)NC(CC)c2cc(-c3ccc(F)c(CCC(=O)O)c3)c3ccccc3c2)c1 (stereo partly drawn) [Example 141, 3-(5-(3-(1-(((R)-1-(3-Ethoxyphenyl)ethyl)amino)propyl)naphthalen-1-yl)-2-fluorophenyl) propanoic acid hydrochloride]
< 20 nM | CCOc1cccc([C@@H](C)NC(C)c2cc(-c3ccc(F)c(CCC(=O)O)c3)c3ccccc3c2)c1 (stereo partly drawn) [Example 142, 3-(5-(3-(1-(((R)-1-(3-Ethoxyphenyl)ethyl)amino)ethyl)naphthalen-1-yl)-2-fluorophenyl) propanoic acid hydrochloride]
20 to 50 nM | CCOc1cccc([C@@H](C)NC(C)c2cc(-c3ccc(C)c(C(=O)O)c3)c3ccccc3c2)c1 (stereo partly drawn) [Example 143, 5-(3-(1-(((R)-1-(3-Ethoxyphenyl)ethyl)amino)ethyl)naphthalen-1-yl)-2-methylbenzoic acid hydrochloride]
20 to 50 nM | CC(N[C@H](C)c1cccc(Cl)c1)c1cc(-c2ccc(F)c(CCC(=O)O)c2)c2ccccc2c1 (stereo partly drawn) [Example 144, 3-(5-(3-(1-(((R)-1-(3-Chlorophenyl)ethyl)amino)ethyl)naphthalen-1-yl)-2-fluorophenyl)propanoic acid hydrochloride]
50 to 400 nM | COc1cccc([C@@H](C)NC(C)c2cc(-c3ccc(C(F)(F)F)c(CCC(=O)O)c3)c3ccccc3c2)c1 (stereo partly drawn) [Example 145, 3-(5-(3-(1-(((R)-1-(3-Methoxyphenyl)ethyl)amino)ethyl)naphthalen-1-yl)-2-(trifluoromethyl)phenyl)propanoic acid hydrochloride]
< 20 nM | COC(=O)c1cc(-c2cc(CN[C@H](C)c3cccc(OC)c3)cc3ccccc23)ccc1C [Example 155, (R)-Methyl 5-(3-(((1-(3-methoxyphenyl)ethyl)amino)methyl)naphthalen-1-yl)-2-methylbenzoate hydrochloride]
< 20 nM | CCOc1cccc([C@@H](C)NC(C)c2cc(-c3ccc(C)c(CCC(=O)O)c3)c3ccccc3c2)c1 (stereo partly drawn) [Example 157, 3-(5-(3-(1-(((R)-1-(3-Ethoxyphenyl)ethyl)amino)ethyl)naphthalen-1-yl)-2-methylphenyl) propanoic acid hydrochloride]
< 20 nM | CCOc1cccc([C@@H](C)NC(C)c2cc(-c3cc(F)cc(CCC(=O)O)c3)c3ccccc3c2)c1 (stereo partly drawn) [Example 158, 3-(3-(3-(1-(((R)-1-(3-Ethoxyphenyl)ethyl)amino)ethyl)naphthalen-1-yl)-5-fluorophenyl) propanoic acid hydrochloride]
< 20 nM | COc1cccc([C@@H](C)NC(C)c2cc(-c3cc(F)cc(N4CCOCC4)c3)c3ccccc3c2)c1 (stereo partly drawn) [Example 161, 1-(4-(3-Fluoro-5-morpholinophenyl)naphthalen-2-yl)-N-((R)-1-(3-methoxyphenyl)ethyl)ethanamine hydrochloride]
< 20 nM | COc1cccc([C@@H](C)NC(C)c2cc(-c3ccc(C(F)(F)F)cc3)c3ccc(F)cc3c2)c1 (stereo partly drawn) [Example 162, (1R)-1-(3-methoxyphenyl)-N-(1-(7-fluoro-4-(4-(trifluoromethyl)phenyl)naphthalen-2-yl)ethyl)ethanamine hydrochloride]
